Measurements reported in patent publication US9656988B2 (Pharmacyclics LLC, priority 2013, dated 2017).
Like-named read-outs stand apart in the source and are kept apart here.

Biological target: BTK (Homo sapiens (Human), UniProt Q06187)
Experiment: Btk in vitro inhibitory activity (one of Method A TR-FRET, Method B electrophoretic mobility shift, Method C radiometric filter binding)
Format: biochemical
[1] = determined using one of the methods of Example 355a, 355b and 355c, read-out: BTK IC50

Sequence of BTK (Q06187 whole entry): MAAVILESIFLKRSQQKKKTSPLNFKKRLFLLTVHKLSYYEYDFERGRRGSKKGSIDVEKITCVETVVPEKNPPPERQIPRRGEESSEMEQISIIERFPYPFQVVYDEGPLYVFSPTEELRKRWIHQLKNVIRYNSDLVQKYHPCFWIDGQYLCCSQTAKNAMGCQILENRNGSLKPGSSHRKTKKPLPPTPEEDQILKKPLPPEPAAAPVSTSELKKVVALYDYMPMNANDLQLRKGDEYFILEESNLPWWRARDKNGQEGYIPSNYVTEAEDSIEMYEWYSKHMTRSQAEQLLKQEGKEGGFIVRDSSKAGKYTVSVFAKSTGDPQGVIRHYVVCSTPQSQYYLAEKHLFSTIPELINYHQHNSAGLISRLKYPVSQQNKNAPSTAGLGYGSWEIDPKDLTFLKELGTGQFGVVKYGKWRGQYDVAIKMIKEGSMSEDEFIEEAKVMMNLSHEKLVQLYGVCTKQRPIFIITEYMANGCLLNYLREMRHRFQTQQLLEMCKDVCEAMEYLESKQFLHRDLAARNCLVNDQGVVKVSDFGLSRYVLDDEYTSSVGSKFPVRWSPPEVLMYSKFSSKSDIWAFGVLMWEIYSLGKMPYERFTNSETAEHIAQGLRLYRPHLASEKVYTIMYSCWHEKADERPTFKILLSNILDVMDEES

SMILES	IC50 [1] [nM]	IC50 (read-out: Btk (IC50)) [nM]	IC50 (Btk (IC50)) [nM]	IC50 [nM]
CN(C)C(=O)N[C@@H]1CCCN(c2cnc(C(N)=O)c(Nc3ccc(C4CCN(CCOCCO)CC4)cc3)n2)C1 [Example 177, (R)-5-(3-(3,3-dimethylureido)piperidin-1-yl)-3-(4-(1-(2-(2-hydroxyethoxy)ethyl)piperidin-4-yl)phenylamino)pyrazine-2-carboxamide]	< 10	< 10		
CN(C)C(=O)N[C@@H]1CCCN(c2cnc(C(N)=O)c(Nc3ccc(F)cc3)n2)C1 [Example 179, (R)-5-(3-(3,3-dimethylureido)piperidin-1-yl)-3-(4-fluorophenylamino)pyrazine-2-carboxamide]	10 to 100	10 to 100		
CN(C)C(=O)N[C@@H]1CCCN(c2cnc(C(N)=O)c(Nc3ccccc3)n2)C1 [Example 180, (R)-5-(3-(3,3-dimethylureido)piperidin-1-yl)-3-(phenylamino)pyrazine-2-carboxamide]	100 to 1000			
CN(C)C(=O)N[C@@H]1CCCN(c2cnc(C(N)=O)c(Nc3ccc(Cl)cc3)n2)C1 [Example 181, (R)-3-(4-chlorophenylamino)-5-(3-(3,3-dimethylureido)piperidin-1-yl)pyrazine-2-carboxamide]	10 to 100			
COc1cc(Nc2nc(N3CCC[C@@H](NC(=O)N(C)C)C3)cnc2C(N)=O)ccc1Cl [Example 182, (R)-3-(4-chloro-3-methoxyphenylamino)-5-(3-(3,3-dimethylureido)piperidin-1-yl)pyrazine-2-carboxamide]	100 to 1000		100 to 1000	
COc1cc(Nc2nc(N3CCC[C@@H](NC(=O)N(C)C)C3)cnc2C(N)=O)ccc1C [Example 183, (R)-5-(3-(3,3-dimethylureido)piperidin-1-yl)-3-(3-methoxy-4-methylphenylamino)pyrazine-2-carboxamide]	100 to 1000			100 to 1000
Cc1nc(Nc2nc(N3CCC[C@@H](NC(=O)N(C)C)C3)cnc2C(N)=O)ccc1F [Example 184, (R)-5-(3-(3,3-dimethylureido)piperidin-1-yl)-3-(5-fluoro-6-methylpyridin-2-ylamino)pyrazine-2-carboxamide]	1000 to 10000			100 to 1000
CN(C)C(=O)N[C@@H]1CCCN(c2cnc(C(N)=O)c(Nc3ccn(C)c(=O)c3)n2)C1 [Example 185, (R)-5-(3-(3,3-dimethylureido)piperidin-1-yl)-3-(1-methyl-2-oxo-1,2-dihydropyridin-4-ylamino)pyrazine-2-carboxamide]	100 to 1000		100 to 1000	
CN(C)C(=O)N[C@@H]1CCCN(c2cnc(C(N)=O)c(Nc3ccc(=O)n(C)c3)n2)C1 [Example 186, (R)-5-(3-(3,3-dimethylureido)piperidin-1-yl)-3-(1-methyl-6-oxo-1,6-dihydropyridin-3-ylamino)pyrazine-2-carboxamide]	10 to 100		10 to 100	
Cc1cc(Nc2nc(N3CCC[C@@H](NC(=O)N(C)C)C3)cnc2C(N)=O)sn1 [Example 187, (R)-5-(3-(3,3-dimethylureido)piperidin-1-yl)-3-(3-methylisothiazol-5-ylamino)pyrazine-2-carboxamide]	10 to 100		10 to 100	
CC(C)Oc1ccc(Nc2nc(N3CCC[C@@H](NC(=O)N(C)C)C3)cnc2C(N)=O)cc1 [Example 188, (R)-5-(3-(3,3-dimethylureido)piperidin-1-yl)-3-(4-isopropoxyphenylamino)pyrazine-2-carboxamide]	< 10	< 10		
CN(C)C(=O)N[C@@H]1CCCN(c2cnc(C(N)=O)c(Nc3ccc(OC4CCCC4)cc3)n2)C1 [Example 189, (R)-3-(4-(cyclopentyloxy)phenylamino)-5-(3-(3,3-dimethylureido)piperidin-1-yl)pyrazine-2-carboxamide]	10 to 100		10 to 100	
CN(C)CCOc1ccc(Nc2nc(N3CCC[C@@H](NC(=O)N(C)C)C3)cnc2C(N)=O)cc1 [Example 191, (R)-3-(4-(2-(dimethylamino)ethoxy)phenylamino)-5-(3-(3,3-dimethylureido)piperidin-1-yl)pyrazine-2-carboxamide]	10 to 100		10 to 100	
CN(C)C(=O)N[C@@H]1CCCN(c2cnc(C(N)=O)c(Nc3ccc([N+](=O)[O-])cc3)n2)C1 [Example 192, (R)-5-(3-(3,3-dimethylureido)piperidin-1-yl)-3-(4-nitrophenylamino)pyrazine-2-carboxamide]	10 to 100		10 to 100	
CN(C)Cc1ccc(Nc2nc(N3CCC[C@@H](NC(=O)N(C)C)C3)cnc2C(N)=O)cc1 [Example 193, (R)-3-(4-((dimethylamino)methyl)phenylamino)-5-(3-(3,3-dimethylureido)piperidin-1-yl)pyrazine-2-carboxamide]	10 to 100		10 to 100	
CN(C)C(=O)N[C@@H]1CCCN(c2cnc(C(N)=O)c(Nc3ccc(C(=O)N(C)C)cc3)n2)C1 [Example 194, (R)-3-(4-(dimethylcarbamoyl)phenylamino)-5-(3-(3,3-dimethylureido)piperidin-1-yl)pyrazine-2-carboxamide]	< 10	< 10		

SMILES	IC50 [1] [nM]	IC50 (read-out: Btk (IC50)) [nM]	IC50 (Btk (IC50)) [nM]	IC50 [nM]
CN(C)C(=O)N[C@@H]1CCCN(c2cnc(C(N)=O)c(Nc3ccc(C(=O)N4CCCC4)cc3)n2)C1 [Example 195, (R)-5-(3-(3,3-dimethylureido)piperidin-1-yl)-3-(4-(pyrrolidine-1-carbonyl)phenylamino)pyrazine-2-carboxamide]	< 10			
CN(C)C(=O)N[C@@H]1CCCN(c2cnc(C(N)=O)c(Nc3ccc(C(=O)Nc4ccccn4)cc3)n2)C1 [Example 196, (R)-5-(3-(3,3-dimethylureido)piperidin-1-yl)-3-(4-(pyridin-2-ylcarbamoyl)phenylamino)pyrazine-2-carboxamide]	10 to 100			
CN(C)C(=O)N[C@@H]1CCCN(c2cnc(C(N)=O)c(Nc3ccc(C(C)(C)C#N)cc3)n2)C1 [Example 197, (R)-3-(4-(2-cyanopropan-2-yl)phenylamino)-5-(3-(3,3-dimethylureido)piperidin-1-yl)pyrazine-2-carboxamide]	< 10	< 10		
CN(C)C(=O)N[C@@H]1CCCN(c2cnc(C(N)=O)c(Nc3ccc(C(C)(C)C(N)=O)cc3)n2)C1 [Example 198, (R)-3-(4-(1-amino-2-methyl-1-oxopropan-2-yl)phenylamino)-5-(3-(3,3-dimethylureido)piperidin-1-yl)pyrazine-2-carboxamide]	10 to 100	10 to 100		
CN(C)C(=O)N[C@@H]1CCCN(c2cnc(C(N)=O)c(Nc3ccc(C4(C#N)CC4)cc3)n2)C1 [Example 199, (R)-3-(4-(1-cyanocyclopropyl)phenylamino)-5-(3-(3,3-dimethylureido)piperidin-1-yl)pyrazine-2-carboxamide]	< 10	< 10		
CN(C)C(=O)N[C@@H]1CCCN(c2cnc(C(N)=O)c(Nc3ccc(C4(CN)CC4)cc3)n2)C1 [Example 201, (R)-3-(4-(1-(aminomethyl)cyclopropyl)phenylamino)-5-(3-(3,3-dimethylureido)piperidin-1-yl)pyrazine-2-carboxamide]	10 to 100			
CN(C)C(=O)N[C@@H]1CCCN(c2cnc(C(N)=O)c(Nc3ccc(C4(C(=O)N(C)C)CC4)cc3)n2)C1 [Example 202, (R)-3-(4-(1-(dimethylcarbamoyl)cyclopropyl)phenylamino)-5-(3-(3,3-dimethylureido)piperidin-1-yl)pyrazine-2-carboxamide]	< 10	< 10		
CN(C)C(=O)N[C@@H]1CCCN(c2cnc(C(N)=O)c(Nc3ccc(C4(C#N)CCCC4)cc3)n2)C1 [Example 203, (R)-3-(4-(1-cyanocyclopentyl)phenylamino)-5-(3-(3,3-dimethylureido)piperidin-1-yl)pyrazine-2-carboxamide]	< 10		< 10	
CN(C)C(=O)N[C@@H]1CCCN(c2cnc(C(N)=O)c(Nc3ccc(C4(CN)CCCC4)cc3)n2)C1 [Example 204, (R)-3-(4-(1-(aminomethyl)cyclopentyl)phenylamino)-5-(3-(3,3-dimethylureido)piperidin-1-yl)pyrazine-2-carboxamide]	10 to 100	10 to 100		
CCN1CCC(c2ccc(Nc3nc(N4CCC[C@@H](NC(=O)N(C)C)C4)cnc3C(N)=O)cc2)CC1 [Example 207, (R)-5-(3-(3,3-dimethylureido)piperidin-1-yl)-3-(4-(1-ethylpiperidin-4-yl)phenylamino)pyrazine-2-carboxamide]	10 to 100		10 to 100	
CC(C)N1CCC(c2ccc(Nc3nc(N4CCC[C@@H](NC(=O)N(C)C)C4)cnc3C(N)=O)cc2)CC1 [Example 208, (R)-5-(3-(3,3-dimethylureido)piperidin-1-yl)-3-(4-(1-isopropylpiperidin-4-yl)phenylamino)pyrazine-2-carboxamide]	< 10	< 10		
CC(C)[N+]1([O-])CCC(c2ccc(Nc3nc(N4CCC[C@@H](NC(=O)N(C)C)C4)cnc3C(N)=O)cc2)CC1 (stereo partly drawn) [Example 209, (R)-4-(4-(3-carbamoyl-6-(3-(3,3-dimethylureido)piperidin-1-yl)pyrazin-2-ylamino)phenyl)-1-isopropylpiperidine 1-oxide]	10 to 100			
CN(C)C(=O)N[C@@H]1CCCN(c2cnc(C(N)=O)c(Nc3ccc(C4CCN(C5CCCCC5)CC4)cc3)n2)C1 [Example 210, (R)-3-(4-(1-cyclohexylpiperidin-4-yl)phenylamino)-5-(3-(3,3-dimethylureido)piperidin-1-yl)pyrazine-2-carboxamide]	< 10	< 10		
CN(C)C(=O)N[C@@H]1CCCN(c2cnc(C(N)=O)c(Nc3ccc(C4CCNCC4)cc3Cl)n2)C1 [Example 213, (R)-3-(2-chloro-4-(piperidin-4-yl)phenylamino)-5-(3-(3,3-dimethylureido)piperidin-1-yl)pyrazine-2-carboxamide]	10 to 100		10 to 100	
CN(C)C(=O)N[C@@H]1CCCN(c2cnc(C(N)=O)c(Nc3ccc(N4CCN(C5CC5)CC4)cc3)n2)C1 [Example 214, (R)-3-(4-(4-cyclopropylpiperazin-1-yl)phenylamino)-5-(3-(3,3-dimethylureido)piperidin-1-yl)pyrazine-2-carboxamide]	< 10	< 10		
